Here are results for one molecule from ChEMBL document CHEMBL5500423, “More than an Amide Bioisostere: Discovery of 1,2,4-Triazole-containing Pyrazolo[1,5-a]pyrimidine Host CSNK2 Inhibitors for Combatting β-Coronavirus Replication” (J Med Chem, 2024).

SMILES strings stand for the structures. Activity calls are given as the source filed them. The rule behind the calls is not given here.

Holding throughout (type): functional, organism-based
The test system of experiment [1] is SARS-CoV-2. The conditions noted are these: Severe acute respiratory syndrome coronavirus 2; MA10; dose 10.0 mg/kg, route ip, time 36.0 hrs.
For experiment [2], the system named is SARS-CoV-2. The experiment can be described thus: Antiviral activity against activity SARS-CoV-2 infected in human A549-ACE2 cells assessed as inhibition of viral replication pretreated with cells for 1 hrs followed by viral infected for 2 hrs and replacement with fresh medium containing compounds and measured 48 hrs post infection. The conditions noted are these: Severe acute respiratory syndrome coronavirus 2, A549-ACE2.

Experiment [3] has as its system Mus musculus. To be noted: CD-1, dose 10.0 mg/kg, route ip, time 36.0 hrs.
Experiment [4] relates to Mus musculus. The conditions noted are these: CD-1, dose 10.0 mg/kg, route ip, time 36.0 hrs. This is another data set of the same source.

As for `CCN(CCN)c1ccc(Nc2cc(NC3CC3)n3ncc(C#N)c3n2)cc1-n1cnnc1`, the outcome in experiment [1] was inactive. Besides, the IC50 in experiment [2] is 390 nM. Further, the inhibition result in experiment [3] and in experiment [4] was “inactive” each time.

Usually IC50 stands for the midpoint of a concentration-inhibition curve.
